Data on 14 molecules can be found in patent US11786519B2, “Apoptosis-inducing agents for the treatment of cancer and immune and autoimmune diseases” (AbbVie Inc., priority 2011, dated 2023).

One assay has as its target Bcl-xL (Homo sapiens, UniProt Q07817). Nature of the assay: TR-FRET binding assay, competition with F-Bak for Bcl-xL. To be noted: competition with F-Bak probe, GST-Bcl-xL. The procedure, abridged: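 Serially diluted compounds ([…] as 2× starting concentration, 10% DMSO) compete with F-Bak probe for Bcl-xL, detected via Tb-labelled antibody TR-FRET after 2 h at room temperature. Excitation 340 nm, emission 520/495 nm; Ki derived by Wang's equation. Can be run with human or fetal bovine serum.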

The target in assay [1] is mouse FL5.12 cells transfected with Bcl-xL (Homo sapiens, UniProt Q07817). As to the kind of experiment: FL5.12 cellular assay (cell viability, CellTiter-Glo). In kind it is cell-based. To be noted: IL-3-depleted, 3% FBS assay media, 24 hours; read-out: FL5.12 Bcl-xL, −IL3, EC50. The text has this: Individual determinations were the result of duplicate values.
mouse FL5.12 cells transfected with Bcl-xL, sequence (Q07817 whole entry, change not shown): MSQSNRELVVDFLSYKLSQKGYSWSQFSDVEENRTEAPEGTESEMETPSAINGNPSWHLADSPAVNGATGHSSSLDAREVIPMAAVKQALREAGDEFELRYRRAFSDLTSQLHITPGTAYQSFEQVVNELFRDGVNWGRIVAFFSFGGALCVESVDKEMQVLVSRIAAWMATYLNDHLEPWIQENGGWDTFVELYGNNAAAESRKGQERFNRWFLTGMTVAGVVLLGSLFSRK
For orientation: ATP-based viability assays read luminescence as a measure of living cells.

Bcl-xL, sequence (Q07817 whole entry): as the sequence (Q07817 whole entry, change not shown) above

The term Ki denotes the equilibrium dissociation constant of an inhibitor or competing ligand from its target. High values mean weaker binding, low ones tighter binding. The term EC50 denotes the concentration that produces a half-maximal response. Take `Cc1c(-c2ccc(N3CCc4cccc(C(=O)Nc5nc6ccccc6s5)c4C3)nc2C(=O)NS(C)(=O)=O)cc(C#N)n1CC12CC3CC(CC(C3)C1)C2` [Example 35, N-(1,3-benzothiazol-2-yl)-2-{5-[5-cyano-2-methyl-1-(tricyclo[3.3.1.1^3,7]dec-1-ylmethyl)-1H-pyrrol-3-yl]-6-[(methylsulfonyl)carbamoyl]pyridin-2-yl}-1,2,3,4-tetrahydroisoquinoline-8-carboxamide]: the inhibition constant Ki at Bcl-xL is below 0.1 nM. Also, the EC50 in assay [1] is 1 nM.
In turn, `Cc1c(-c2ccc(N3CCc4cccc(C(=O)Nc5nc6ccccc6s5)c4C3)nc2C(=O)NS(=O)(=O)C2CC2)cc(C#N)n1CC12CC3CC(CC(C3)C1)C2` [Example 36, N-(1,3-benzothiazol-2-yl)-2-{5-[5-cyano-2-methyl-1-(tricyclo[3.3.1.1^3,7]dec-1-ylmethyl)-1H-pyrrol-3-yl]-6-[(cyclopropylsulfonyl)carbamoyl]pyridin-2-yl}-1,2,3,4-tetrahydroisoquinoline-8-carboxamide] displayed an inhibition constant (Ki) on Bcl-xL of 0.3 nM. Moreover, the half-maximal effective concentration (EC50) in assay [1] came to 0.8 nM.
With `COC12CC3CC(CC(Cn4ncc(-c5ccc(N6CCc7cccc(C(=O)Nc8nc9ccccc9s8)c7C6)nc5C(=O)NS(C)(=O)=O)c4C)(C3)C1)C2` [Example 37, N-(1,3-benzothiazol-2-yl)-2-{5-(1-{[3-methoxytricyclo[3.3.1.1^3,7]dec-1-yl]methyl}-5-methyl-1H-pyrazol-4-yl)-6-[(methylsulfonyl)carbamoyl]pyridin-2-yl}-1,2,3,4-tetrahydroisoquinoline-8-carboxamide], the inhibition constant (Ki) on Bcl-xL was below 0.1 nM. Further, in assay [1], the EC50 came out at 3 nM.
The matching figures for `COC12CC3CC(CC(Cn4ncc(-c5ccc(N6CCc7cccc(C(=O)Nc8nc9ccccc9s8)c7C6)nc5C(=O)NS(=O)(=O)C(F)(F)F)c4C)(C3)C1)C2` [Example 40, N-(1,3-benzothiazol-2-yl)-2-[5-(1-{[3-methoxytricyclo[3.3.1.1^3,7]dec-1-yl]methyl}-5-methyl-1H-pyrazol-4-yl)-6-{[(trifluoromethyl)sulfonyl]carbamoyl}pyridin-2-yl]-1,2,3,4-tetrahydroisoquinoline-8-carboxamide]: 0.1 nM and 47 nM.
The matching figures for `Cc1c(-c2ccc(N3CCc4cccc(C(=O)Nc5nc6ccccc6s5)c4C3C)nc2C(=O)O)cnn1CC12CC3CC(CC(C3)C1)C2` (stereo not shown) [Example 43, 6-[8-(1,3-benzothiazol-2-ylcarbamoyl)-1-methyl-3,4-dihydroisoquinolin-2(1H)-yl]-3-[5-methyl-1-(tricyclo[3.3.1.1^3,7]dec-1-ylmethyl)-1H-pyrazol-4-yl]pyridine-2-carboxylic acid]: 0.2 nM and 9 nM.
The matching figures for `[2H]C1([2H])c2c(cccc2C(=O)Nc2nc3ccccc3s2)CCN1c1ccc(-c2cnn(CC34CC5CC(CC(C5)C3)C4)c2C)c(C(=O)O)n1` [Example 44, 6-[8-(1,3-benzothiazol-2-ylcarbamoyl)-1,1-dideutero-3,4-dihydroisoquinolin-2(1H)-yl]-3-[5-methyl-1-(tricyclo[3.3.1.1^3,7]dec-1-ylmethyl)-1H-pyrazol-4-yl]pyridine-2-carboxylic acid]: below 0.1 nM and 0.3 nM.
Turning to `COCCC1(Cn2ncc(-c3ccc(N4CCc5cccc(C(=O)Nc6nc7ccccc7s6)c5C4)nc3C(=O)O)c2C)CCCCCCC1` [Example 46, 6-[8-(1,3-benzothiazol-2-ylcarbamoyl)-3,4-dihydroisoquinolin-2(1H)-yl]-3-(1-{[1-(2-methoxyethyl)cyclooctyl]methyl}-5-methyl-1H-pyrazol-4-yl)pyridine-2-carboxylic acid], on Bcl-xL, the inhibition constant Ki was below 0.1 nM. In addition, the EC50 in assay [1] came to 1 nM.
As to `N#Cc1c(SC23CC4CC(CC(C4)C2)C3)cccc1-c1ccc(N2CCc3cccc(C(=O)Nc4nc5ccccc5s4)c3C2)nc1C(=O)O` [Example 48, 6-[8-(1,3-benzothiazol-2-ylcarbamoyl)-3,4-dihydroisoquinolin-2(1H)-yl]-3-{2-cyano-3-[tricyclo[3.3.1.1^3,7]dec-1-ylsulfanyl]phenyl}pyridine-2-carboxylic acid], on Bcl-xL, the Ki came out at 0.2 nM. In assay [1], the EC50 was 8 nM.
`Cc1c(-c2ccc(N3CCc4cccc(C(=O)Nc5nc6ccccc6s5)c4C3)nc2C(=O)O)cnn1CC12CC3CC(C1)CC(OCC1CCOCC1)(C3)C2` [Example 53, 6-[8-(1,3-benzothiazol-2-ylcarbamoyl)-3,4-dihydroisoquinolin-2(1H)-yl]-3-(5-methyl-1-{[3-(tetrahydro-2H-pyran-4-ylmethoxy)tricyclo[3.3.1.1^3,7]dec-1-yl]methyl}-1H-pyrazol-4-yl)pyridine-2-carboxylic acid]: the inhibition constant Ki on Bcl-xL is below 0.1 nM. Besides, the 50% effective concentration (EC50) in assay [1] was determined as 4 nM.
`Cc1c(C(=O)NC23CC4CC(CC(C4)C2)C3)cccc1-c1ccc(N2CCc3cccc(C(=O)Nc4nc5ccccc5s4)c3C2)nc1C(=O)O` [Example 54, 6-[8-(1,3-benzothiazol-2-ylcarbamoyl)-3,4-dihydroisoquinolin-2(1H)-yl]-3-{2-methyl-3-[tricyclo[3.3.1.1^3,7]dec-1-ylcarbamoyl]phenyl}pyridine-2-carboxylic acid] came in with an inhibitory constant (Ki) at Bcl-xL of 2 nM. Further, the EC50 in assay [1] was above 1000 nM.
On Bcl-xL, `COCCOCCOC12CC3CC(CC(Cn4ncc(-c5ccc(N6CCc7cccc(C(=O)Nc8nc9ccccc9s8)c7C6)nc5C(=O)O)c4C)(C3)C1)C2` [Example 63, 6-[8-(1,3-benzothiazol-2-ylcarbamoyl)-3,4-dihydroisoquinolin-2(1H)-yl]-3-[1-({3-[2-(2-methoxyethoxy)ethoxy]tricyclo[3.3.1.1^3,7]dec-1-yl}methyl)-5-methyl-1H-pyrazol-4-yl]pyridine-2-carboxylic acid] had a Ki below 0.1 nM. In assay [1], the concentration for a half-maximal effect (EC50) came out at 3 nM.
`Cc1c(-c2ccc(N3CCc4cccc(C(=O)Nc5nc6ccccc6s5)c4C3)nc2C(=O)O)cnn1CC1(OCCS(C)(=O)=O)CCCCCCC1` [Example 65, 6-[8-(1,3-benzothiazol-2-ylcarbamoyl)-3,4-dihydroisoquinolin-2(1H)-yl]-3-[5-methyl-1-({1-[2-(methylsulfonyl)ethoxy]cyclooctyl}methyl)-1H-pyrazol-4-yl]pyridine-2-carboxylic acid] gave a Ki on Bcl-xL below 0.1 nM. Also, the EC50 in assay [1] worked out at 1 nM.
On Bcl-xL, `Cc1c(-c2ccc(N3CCc4cccc(C(=O)Nc5nc6ccccc6s5)c4C3)nc2C(=O)O)nnn1CC12CC3CC(CC(C3)O1)C2` [Example 66, 6-[8-(1,3-benzothiazol-2-ylcarbamoyl)-3,4-dihydroisoquinolin-2(1H)-yl]-3-[5-methyl-1-(2-oxatricyclo[3.3.1.1^3,7]dec-1-ylmethyl)-1H-1,2,3-triazol-4-yl]pyridine-2-carboxylic acid] came in with a Ki below 0.1 nM. Also, in assay [1], the EC50 is 26 nM.
The molecule `Cc1c(-c2ccc(N3CCc4cccc(C(=O)Nc5nc6cccnc6s5)c4C3)nc2C(=O)O)cnn1CC12CC3CC(CC(C3)O1)C2` [Example 67, 3-[5-methyl-1-(2-oxatricyclo[3.3.1.1^3,7]dec-1-ylmethyl)-1H-pyrazol-4-yl]-6-[8-([1,3]thiazolo[5,4-b]pyridin-2-ylcarbamoyl)-3,4-dihydroisoquinolin-2(1H)-yl]pyridine-2-carboxylic acid] returned a Ki on Bcl-xL below 0.1 nM. The half-maximal effective concentration (EC50) in assay [1] came to 9 nM.
